Laboratory results from patent EP0399731B2, “Azaindenes” (AstraZeneca AB, priority 1989, dated 1990).

Legend:
[1] = system: All-induced contractions of isolated rabbit aorta; assay: Test B: antagonism of All-induced contractions of isolated rabbit aorta; format: cell-based; conditions: 37°C
Description: This in vitro test involves the measurement of the antagonistic effects of the test compound against All-induced contractions of isolated rabbit aorta, maintained in a physiological salt solution at 37°C. In order to ensure that the effect of the compound is specific to antagonism of All, the effect of the test compound on noradrenaline-induced contractions may also be determined in the same preparation.

[2] = molecular target: T1, All (angiotensin II) receptors (Cavia porcellus, UniProt Q9WV26); assay: Test A: displacement of radiolabelled All binding from guinea pig adrenal gland membrane fraction; conditions: guinea pig adrenal gland membranes; read-out: IC50 (concentration for 50% displacement of radiolabelled All binding)
T1 construct: from tissue; host or cells: guinea pig adrenal gland, cell surface membrane fraction
T1 sequence (Q9WV26 1-359): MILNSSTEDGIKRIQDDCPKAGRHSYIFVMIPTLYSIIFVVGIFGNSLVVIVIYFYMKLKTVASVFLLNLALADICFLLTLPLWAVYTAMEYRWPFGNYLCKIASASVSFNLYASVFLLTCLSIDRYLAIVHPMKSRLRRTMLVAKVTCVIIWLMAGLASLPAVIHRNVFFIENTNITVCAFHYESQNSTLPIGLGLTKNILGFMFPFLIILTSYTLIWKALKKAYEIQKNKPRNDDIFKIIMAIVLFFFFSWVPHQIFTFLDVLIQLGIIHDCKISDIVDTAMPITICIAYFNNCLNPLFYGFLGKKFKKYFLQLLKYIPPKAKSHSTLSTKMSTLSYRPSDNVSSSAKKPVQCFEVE
Description: This in vitro procedure involves the incubation of the test compound initially at a concentration of 100 micromolar (or less) in a buffered mixture containing fixed concentrations of radiolabelled All and a cell surface membrane fraction prepared from a suitable angiotensin target tissue. In this test, the source of cell surface membranes is the guinea pig adrenal gland which is well known to respond to All. Interaction of the radiolabelled All with its receptors (assessed as radiolabel bound to the particulate membrane fraction following removal of unbound radiolabel by a rapid filtration procedure such as is standard in such studies) is antagonized by compounds which also bind to the membrane receptor sites and the degree of antagonism (observed in the test as displacement of membrane-bound radioactivity) is determined readily by comparing the receptor-bound radioactivity in the presence of the test compound at the specified test concentration with a control value determined in the absence of the test compound. Using this procedure compounds showing at least 50% displacement of radiolabelled All binding at a concentration of 10^-4 M are retested at lower concentrations to determine their potency. […]

[3] = system: angiotensin II-induced pressor responses; assay: Test C: antagonism of angiotensin II-induced pressor responses in terminally-anaesthetised or conscious rats; format: in vivo; conditions: Rattus norvegicus
Description: This in vivo test involves using terminally-anaesthetised or conscious rats in which an arterial catheter has been implanted under anaesthesia for the measurement of changes in blood pressure. The All antagonistic effects of the test compound following oral or parenteral administration, are assessed against angiotensin II-induced pressor responses. To ensure that the effect is specific the effect of the test compound on vasopressin-induced pressor responses may also be determined in the same preparation.

- IC50 [2]: 14.9 nM
SMILES: CCCCc1nc2cccnc2n1Cc1ccc(-c2ccccc2-c2nnn[nH]2)cc1.Cl [Example 3, 2-butyl-3-[(2'-(1H-tetrazol-5-yl)biphenyl-4-yl)methyl]-3H-imidazo[4,5-b]pyridine hydrochloride]
- pA2 [1]: 9.2
- inhibition at 20 mg/kg ([3]; 1 h, after one hour at a dose of 20mg/kg (oral administration)): 54%
- ED50 ([3]; parenteral administration): 1.07 mg/kg
